SMILES strings stand for the structures. Where a name gives a salt, the structure may show the parent alone.

This assay deals with ileum segments. As to the kind of experiment: Guinea Pig Ileum Coaxial Stimulation. It counts as tissue-based. The conditions noted are these: Cavia porcellus, 5 min; concentration of 3.10^-9 M; five minutes after administration versus before; submaximal electrical stimulation (80% of maximal response); read-out: increase of the amplitude of the twitch response. The protocol:
Example 10 : Guinea Pig Ileum Coaxial Stimulation. Dunkin Hartley guinea-pigs of both sexes (body weight ± 500 g) were killed by decapitation. The ileum was removed and cleansed with warmed and oxygenated Krebs-Henseleit solution. Non-terminal, intact ileum segments, 4.5 cm long, of the guinea pig were vertically suspended with a preload of 1 g in 100 ml Krebs-Henseleit solution (37.5°C), gassed with a mixture of 95% O2 and 5% CO2. Transmural excitation was applied over the whole length of the ileum segment by means of two platinum electrodes, the anode threaded through the lumen of the ileum, the cathode in the bathing solution. The preparation was excited with single rectangular […] [1 msec; 0.1 Hz; submaximal response (current leading to 80% of maximal reponse)] from a progammable stimulator. Contractions were measured isometrically. During the stabilization period of 30 min, the strips were repeatedly stretched to a tension of 2g, in order to obtain a steady state tension of lg. Before starting the electrical stimulation, a cumulative dose response curve of acetylcholine was given. The electrical stimulation was started at supramaximal current to determine the maximal amplitude of the twitch responses. When these responses were stable, a submaximal stimulation to obtain 80% of the maximal responses was given until the twitch responses were constant for at least 15 min, whereafter a single dose of the test compound was added to the bath fluid. The amplitude of the twitch response five minutes after the administration of the test compound is compared with the amplitude before the administration of the test compound.
Regarding `CC1(C)CCc2c(N)c(Cl)cc(C(=O)OC3CCN(CC4CCCO4)CC3)c2O1` (racemic) [Compound 32, 1-[(tetrahydro-2-furanyl)methyl]-4-piperidinyl 5-amino-6-chloro-3,4-dihydro-2,2-dimethyl-2H-1-benzopyran-8-carboxylate], the activation at 0.003 µM is > 5%.
Consider `Nc1c(Cl)cc(C(=O)OC2CCN(CCCC3CCCO3)CC2)c2c1CCO2` (racemic) [Compound 35], for which the activation at 0.003 µM is > 5%.
Regarding `Nc1c(Cl)cc(C(=O)OC2CCN(CCC3CCCO3)CC2)c2c1CCO2` (racemic) [Compound 36, 1-[2-(tetrahydro-2-furanyl)ethyl]-4-piperidinyl 4-amino-5-chloro-2,3-dihydro-7-benzofurancarboxylate], the activation at 0.003 µM was > 5%.
For `CCn1c(=O)n(CCN2CCC(OC(=O)c3cc(Cl)c(N)c4c3OCC4)CC2)c2ccccc21` [Compound 1], the activation at 0.003 µM was > 5%.
To `CC(C)OCCCN1CCC(OC(=O)c2cc(Cl)c(N)c3c2OCC3)CC1` [Compound 4, 1-[3-(1-methylethoxy)propyl]-4-piperidinyl 4-amino-5-chloro-2,3-dihydro-7-benzofurancarboxylate monohydrochloride] belongs > 5%; to `CC1(CCCN2CCC(OC(=O)c3cc(Cl)c(N)c4c3OCC4)CC2)OCCO1` [Compound 6, 1-[3-(2-methyl-1,3-dioxolan-2-yl)propyl]-4-piperidinyl 4-amino-5-chloro-2,3-dihydro-7-benzofurancarboxylate], > 5%; to `Nc1c(Cl)cc(C(=O)OC2CCN(CCCn3nc(Cl)ccc3=O)CC2)c2c1CCO2` [Compound 7, 1-[3-(3-chloro-6-oxo-1(6H)-pyridazinyl)propyl]-4-piperidinyl 4-amino-5-chloro-2,3-dihydro-7-benzofurancarboxylate], > 5%.
In the case of `CC(=O)CCCN1CCC(OC(=O)c2cc(Cl)c(N)c3c2OCC3)CC1` [Compound 8, 1-(4-oxopentyl)-4-piperidinyl 4-amino-5-chloro-2,3-dihydro-7-benzofurancarboxylate], the activation at 0.003 µM was > 5%.
For `Nc1c(Cl)cc(C(=O)OC2CCN(CCOCCO)CC2)c2c1CCO2` [Compound 14, 1-[2-(2-hydroxyethoxy)ethyl]-4-piperidinyl 4-amino-5-chloro-2,3-dihydro-7-benzo-furancarboxylate], the activation at 0.003 µM was > 5%.
Consider `COCCCN1CCC(OC(=O)c2cc(Cl)c(N)c3c2OCC3)CC1` [Compound 15, 1-(3-methoxypropyl)-4-piperidinyl 4-amino-5-chloro-2,3-dihydro-7-benzofuran-carboxylate], for which the activation at 0.003 µM is > 5%.
As for `CCN1CCC(OC(=O)c2cc(Cl)c(N)c3c2OC(C)(C)C3)CC1` [Compound 16], the activation at 0.003 µM was > 5%.
As to `CCOC(=O)CCCN1CCC(OC(=O)c2cc(Cl)c(N)c3c2OCC3)CC1` [Compound 33, ethyl 4-[[(4-amino-5-chloro-2,3-dihydro-7-benzofuranyl)carbonyl]oxy]-1-piperidinebutanoate], the activation at 0.003 µM is > 5%.
Consider `Nc1c(Cl)cc(C(=O)OC2CCN(CC3CC3)CC2)c2c1CCO2` [Compound 34], for which the activation at 0.003 µM is > 5%.
To `Cc1nccnc1NCCN1CCC(OC(=O)c2cc(Cl)c(N)c3c2OCC3)CC1` [Compound 39, 1-[2-[(3-methyl-2-pyrazinyl)amino]ethyl]-4-piperidinyl 4-amino-5-chloro-2,3-dihydro-7-benzofurancarboxylate] belongs > 5%.
To `COC1CN(CCCC2(C)OCCO2)CCC1OC(=O)c1cc(Cl)c(N)c2c1OCC2` (stereo not shown) [Compound 46] belongs > 5%.
Consider `COC1CN(CCCn2nc(Cl)ccc2=O)CCC1OC(=O)c1cc(Cl)c(N)c2c1OCC2` (stereo not shown) [Compound 50], for which the activation at 0.003 µM was > 5%.

Source of the values: patent publication EP0784620B1, “N-SUBSTITUTED PIPERIDINYL BICYCLIC BENZOATE DERIVATIVES” (JANSSEN PHARMACEUTICA N.V., priority 1994, dated 1996).
